This note sets out measurements from PubChem BioAssay (NCI).

Structures are written as SMILES. Where “and” joins values, the source holds several entries; their conditions need not be identical. Equal values may be shown once.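 96-well plates; 48 h exposure; 5 concentrations. Endpoints by linear interpolation between flanking doses. Not reached: highest tested concentration assigned. GI50 = concentration required for 50% inhibition of growth. TGI: concentration producing complete growth inhibition.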

What all share (test): NCI tumour cell line growth inhibition, 48 h
The subject of assay [1] is 786-0 renal.
Assay [2] concerns ACHN renal.
Assay [3] deals with HOP-62 NSCLC.
For assay [4], the system named is HS 578T breast.
The test system of assay [5] is LOX IMVI melanoma.
The subject of assay [6] is M14 melanoma.
The subject of assay [7] is MCF7 breast.
For assay [8], the system named is RXF 393 renal.
The test system of assay [9] is SK-MEL-2 melanoma.
Assay [10] concerns SNB-19 CNS.

For the compound `CCCCCCNC(=O)Oc1ccc(/C(=C(\C)c2ccccc2)c2ccc(OCCN(CC)CC)cc2)cc1`, the GI50 in assay [1] is 1.5 µM; in assay [2], 5.99 µM; in [3], 6.51 µM; in assay [4], 2.92 µM; in assay [5] it was 1.1 µM; in [6], 1.11 µM. The GI50 in [7] was 0.602 µM; in [8] it was 2.35 µM; in assay [9] it was 7.5 µM; in assay [10], 4.89 µM. Further, the TGI came to 5.33 µM in [1]; 12.2 µM in assay [2]; 13.4 µM in assay [3]; 11.7 µM in [4]; 2.96 µM in [5]; 2.38 µM in assay [6]. In addition, the TGI in assay [7] is 5.47 µM; in assay [8] it was 8.16 µM; in assay [9] it was 14.8 µM; in [10] it was 11.1 µM.
As for `Cc1ccc2c(c1)C(=O)c1c-2n(CCCN=[N+]=[N-])c(=O)c2cc([N+](=O)[O-])ccc12`, the GI50 in assay [1] was 29.8 µM; in assay [2] it was 30.8 µM; in assay [3] it was 71.7 µM; in assay [4], above 100 µM; in assay [5], 33.2 µM; in assay [6], above 100 µM. Also, the GI50 in assay [7] is 50.1 µM; in assay [8] it was above 100 µM; in assay [9] it was above 100 µM; in assay [10], above 100 µM. For the same compound, the TGI in [1], in assay [2], in assay [3], in assay [4], in assay [5] and in assay [6] was above 100 µM throughout. Besides, the TGI in assay [7], in [8], in assay [9] and in assay [10] was above 100 µM throughout.
As for `Cc1cc(S(=O)(=O)Nc2nc3cc(Cl)ccc3o2)c(SCc2ccccc2)cc1Cl`, the GI50 is 20.1 µM in [1]; 18.5 µM in [2]; 21.9 µM in assay [3]; 21 µM in assay [4]; 21.4 µM in assay [5]; 22.1 µM in assay [6]. In addition, the GI50 was 24.9 µM in [7], 30.9 µM in [8], 20.5 µM in [9] and 21.2 µM in assay [10]. Moreover, the TGI is 38 µM in assay [1]; 34.9 µM in [2]; 40 µM in [3]; 44.3 µM in assay [4]; 48.9 µM in [5]; 43.9 µM in [6]. The TGI in assay [7] was found to be 60.5 µM; in [8] it was 58.5 µM; in [9], 43.1 µM; in assay [10], 46.9 µM.
`COc1ccc(NC(=O)/C=C(C)/C=C/C=C(C)\C=C\C2=C(C)CCCC2(C)C)cc1`: the GI50 in [1] was 90.3 µM; in assay [2], above 100 µM; in assay [3], above 100 µM; in [4], 9.02 µM; in assay [5], 32 µM; in assay [6] it was above 100 µM. The GI50 in [7] was 40.3 µM; in assay [8], 25.5 µM; in [9], 72.4 µM; in [10], above 100 µM. Also, the TGI is above 100 µM in assay [1]; above 100 µM in assay [2]; above 100 µM in assay [3]; 96.7 µM in assay [4]; above 100 µM in assay [5]; above 100 µM in assay [6]. Moreover, the TGI in [7] is above 100 µM; in assay [8] it was 76.1 µM; in assay [9] it was above 100 µM; in assay [10] it was above 100 µM.
`COc1cc(/C=N\O)nc(-c2ccccn2)c1`: the TGI in assay [1] is above 100 µM; in [2] it was above 100 µM; in [4], above 100 µM; in assay [5], above 100 µM; in assay [6] it was above 45 µM; in [7] it was above 100 µM. Besides, the TGI in [8], in assay [9] and in assay [10] was above 100 µM throughout.
For the compound `CCOC(=O)/C(C#N)=C/Nc1ccc(-c2nc3ccccc3[nH]2)cc1`, the GI50 in [1] is 27.2 µM; in assay [2] it was 25.4 µM; in assay [3], 31.1 µM; in assay [4] it was 24.3 µM; in [5], 19.4 µM; in [6] it was 62.3 µM. The GI50 in assay [8] was 76.7 µM; in assay [9], 42.6 µM; in assay [10], 36.5 µM. Also, the TGI in assay [1] was 64.7 µM; in assay [2] it was 78 µM; in assay [3], 74.7 µM; in assay [4], 79.5 µM; in assay [5] it was 41.5 µM; in [6], above 100 µM. Besides, the TGI in assay [8], in assay [9] and in assay [10] was above 100 µM in each case.
As for `COc1cc(C2c3cc4c(cc3[C@@H](Nc3ccc(N)cc3)C3COC(=O)[C@H]23)OCO4)cc(OC)c1O` (stereo not given in full), the GI50 was 0.514 µM in [1], 0.345 µM in assay [2], 0.652 µM in assay [6] and 0.555 µM in [10]. The TGI is 4.43 µM in [1]; 6.05 µM in assay [2]; 0.865 µM and 2.5 µM in assay [3]; 6.48 µM in [5]; 18.6 µM in [6]; 12.3 µM in assay [7]. For the same compound, the TGI came to 13.2 µM in assay [8], 18.9 µM in assay [9] and 17.3 µM in assay [10].
For the compound `Cc1nnc(-c2ccc(-c3nc4ccccc4o3)cc2)o1`, the GI50 in [1] is above 100 µM; in assay [2], above 100 µM; in assay [3] it was 42.8 µM; in assay [4], 95.1 µM; in [5] it was above 100 µM; in assay [6], above 100 µM. The GI50 in assay [7] was 26.7 µM; in assay [9], above 100 µM; in assay [10], 20.7 µM. Further, the TGI in assay [1], in [2], in assay [3], in assay [4], in assay [5] and in [6] was above 100 µM throughout. The TGI in [7] was above 100 µM; in assay [9], above 100 µM; in assay [10], 43.1 µM.
Turning to `CO[C@H](C(=O)O)[C@@H]1Cc2cc3cc(OC4CC(OC5CC(O)C(O)C(C)O5)C(O)C(C)O4)c(C)c(O)c3c(O)c2C(=O)[C@H]1OC1CC(OC2CC(OC3CC(C)(O)C(O)C(C)O3)C(O)C(C)O2)C(O)C(C)O1` (stereo not given in full), the GI50 in assay [1] was 0.213 µM; in assay [3] it was 0.211 µM; in assay [4] it was 0.161 µM; in [5] it was 0.114 µM; in assay [6], 0.443 µM; in [8], 0.101 µM. Besides, the GI50 in assay [9] was 0.335 µM; in assay [10] it was 0.201 µM. Moreover, the TGI is above 32.5 µM in [1]; above 32.5 µM in assay [3]; above 32.5 µM in [4]; 1.48 µM in assay [5]; 3.59 µM in assay [6]; 0.436 µM in [8]. In addition, the TGI was 1.56 µM in assay [9] and above 32.5 µM in assay [10].
Regarding `N#Cc1cccc(OCc2ccccc2COc2cccc(C#N)c2)c1`, the GI50 in [1] was 12.3 µM; in assay [2], 27.2 µM; in assay [4] it was 30.9 µM; in assay [6] it was 43.9 µM; in assay [7], 50.3 µM; in assay [9] it was above 100 µM. Besides, in assay [10], the GI50 was above 100 µM. Further, the TGI in [1] is 27.7 µM; in assay [2], 86.3 µM; in assay [4] it was 70.5 µM; in assay [6], above 100 µM; in assay [7] it was above 100 µM; in [9], above 100 µM. In addition, the TGI in assay [10] was above 100 µM.
As for `C#CCN(Cc1nc2cc(C(F)(F)F)ccc2nc1-c1ccccc1)c1ccc(F)c(F)c1`, the GI50 in [1] is above 100 µM; in assay [2] it was 78.3 µM; in assay [3], above 100 µM; in [4], 45.5 µM; in [5], 42 µM; in [6], above 100 µM. For the same compound, the figures for the GI50 in assay [7], in assay [8] and in assay [10] were 26 µM, 22.9 µM and 92.5 µM, respectively. The TGI in assay [1], in assay [2], in [3], in [4], in assay [5] and in [6] was above 100 µM in each case. Moreover, the TGI was above 100 µM in assay [7], 92.5 µM in [8] and above 100 µM in assay [10].
On to `O=c1c2c3c(sc2n2c(-c4ccc(Br)cc4)nnc2n1Cc1ccccc1)CCCC3`, for which the GI50 in assay [1] was 3.96 µM; in assay [2], 8.74 µM; in assay [3], 3.97 µM; in assay [4], 11.9 µM; in assay [5], 10.5 µM; in [7], 10.6 µM. In addition, the GI50 in assay [9] was 8.58 µM; in [10] it was 8.12 µM. For the same compound, the TGI in assay [1] turned out to be 14.6 µM; in assay [2], 21.1 µM; in assay [3], 17.6 µM; in assay [4], 36.6 µM; in [5], 22.3 µM; in assay [7] it was 23.2 µM. Further, the TGI is 21.2 µM in assay [9] and 20.7 µM in [10].
Consider `Cc1cc(O)c(C(c2ccncc2)c2c(O)cc(C)[nH]c2=O)c(=O)[nH]1`, for which the TGI in [1], in assay [2], in assay [3], in assay [4], in assay [5] and in [6] was above 100 µM throughout. Moreover, the TGI in assay [7], in assay [8] and in [10] was above 100 µM in each case.
In the case of `O=C1c2ccn(CCCCN3CCC(O)CC3)c2C(=O)c2c1c(O)c1ccccc1c2O`, the GI50 in [1] is 13.1 µM; in [2] it was 15.2 µM; in assay [3] it was 16.3 µM; in assay [4] it was 29.2 µM; in [5], 8.04 µM; in assay [6], 1.95 µM. For the same compound, the GI50 in assay [9] was 2.45 µM; in assay [10] it was above 52.2 µM. Moreover, the TGI in assay [1] was 31.1 µM; in assay [2], 32.8 µM; in assay [3] it was 34.9 µM; in assay [4], above 83.8 µM; in [6], 3.69 µM; in assay [9], 8.32 µM. Besides, the TGI in assay [10] was above 86.9 µM.
Consider `C#Cc1cc2c(N)c(C(=O)c3cc(OC)c(OC)c(OC)c3)[nH]c2cc1OC`, for which the GI50 in assay [1] was 0.542 µM; in assay [2], 0.574 µM; in assay [3], 0.58 µM; in assay [4], 1.34 µM; in assay [5], 0.656 µM; in assay [6] it was 0.521 µM. The GI50 in assay [7] was 0.325 µM; in assay [9] it was 0.572 µM; in assay [10], 0.73 µM. The TGI in assay [1], in assay [2], in assay [3], in assay [4], in assay [5] and in assay [6] was above 100 µM throughout. Besides, the TGI was above 100 µM in [7], 62.9 µM in assay [9] and above 100 µM in [10].
In the case of `Cc1ncc([N+](=O)[O-])n1CCNC(=O)CCCCCn1ccnc1[N+](=O)[O-]`, the TGI in assay [1], in assay [2], in assay [3], in assay [4], in [6] and in assay [7] was above 100 µM in each case. For the same compound, the TGI in assay [9] and in assay [10] was above 100 µM in each case.
As for `O=C(CC(=O)c1ccccc1)c1ccccc1`, the GI50 is 11 µM in [1]; 11.5 µM in assay [2]; 7.72 µM in assay [3]; 25.4 µM in [4]; 14.1 µM in [6]; 10.1 µM in assay [7]. The GI50 was 22 µM in assay [8], 87 µM in assay [9] and 27 µM in assay [10]. Besides, the TGI in [1] is 43.6 µM; in assay [2], 34.5 µM; in assay [3], 39.6 µM; in assay [4], above 100 µM; in assay [6], 44.7 µM; in assay [7], 82.3 µM. For the same compound, the TGI in assay [8] is 88 µM; in assay [9], above 100 µM; in assay [10], above 100 µM.
